Patent publication US9499550B2 (BRISTOL-MYERS SQUIBB COMPANY, priority 2012, dated 2016)

Assays:
[1] = system: HCV genotype 1b (Con1) replicon in HUH-7 cells; assay: HCV replicon luciferase reporter assay, genotype 1b; assay type: cell-based; details: Hepatitis C virus, Huh-7, 72 h, HCV genotype 1b replicon luciferase, 3 days incubation, read-out: LE_1b (EC50, range)
Summary of the method: (§1)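 Replicon inhibition for both genotypes was measured as Renilla luciferase signal (EnduRen, 7.5 μM final, 2 h) after 3-day, 37° C exposure of replicon-bearing HUH-7 cells in 4% FCS DMEM, 0.5% DMSO. The 1b construct carries S1179I; the 1a H77 construct carries P1496L and S2204I. Twenty-point, 3-fold dilutions were fitted four-parametrically for EC50, and CC50 was taken from multiplexed Cell Titer-Blue.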

[2] = system: HCV genotype 1a (H77 strain) replicon in HUH-7 cells; assay: HCV replicon luciferase reporter assay, genotype 1a; assay type: cell-based; details: Hepatitis C virus, Huh-7, 72 h, HCV genotype 1a replicon luciferase, 3 days incubation, read-out: LE_1a (EC50, range)
Summary of the method: as §1

Compound	EC50 [1]	EC50 [2]
[2H]C([2H])([2H])C(C)(OC(=O)N[C@@H]1C(=O)N2C[C@H](Oc3nccc4cc(OC(C)C)ccc34)C[C@H]2C(=O)N[C@]2(C(=O)NS(=O)(=O)C3CC3)C[C@H]2/C=C\CC[C@H](C)C[C@H]1C)C([2H])([2H])[2H] [Compound 5152, 1,1,1,3,3,3-hexadeutero-2-methylpropan-2-yl((2R,6S,7R,9S,13aS,14aR,16aS,Z)-14a-((cyclopropylsulfonyl)carbamoyl)-2-((6-isopropoxyisoquinolin-1-yl)oxy)-7,9-dimethyl-5,16-dioxo-1,2,3,5,6,7,8,9,10,11,13a,14,14a,15,16,16a-hexadecahydrocyclopropa[e]pyrrolo[1,2-a][1,4]diazacyclopentadecin-6-yl)carbamate]	4.82 to 103 nM	4.82 to 103 nM
[2H]C([2H])([2H])C(C)(OC(=O)N[C@@H]1C(=O)N2C[C@H](Oc3nccc4cc(OC(C)C)ccc34)C[C@H]2C(=O)N[C@]2(C(=O)NS(=O)(=O)C3CC3)C[C@H]2/C=C\CC[C@@H](C)C[C@H]1C)C([2H])([2H])[2H] [Compound 5153, 1,1,1,3,3,3-hexadeutero-2-methylpropan-2-yl((2R,6S,7R,9R,13aS,14aR,16aS,Z)-14a-((cyclopropylsulfonyl)carbamoyl)-2-((6-isopropoxyisoquinolin-1-yl)oxy)-7,9-dimethyl-5,16-dioxo-1,2,3,5,6,7,8,9,10,11,13a,14,14a,15,16,16a-hexadecahydrocyclopropa[e]pyrrolo[1,2-a][1,4]diazacyclopentadecin-6-yl)carbamate]	< 5.46 nM	< 5.46 nM
[2H]C([2H])([2H])C(OC(=O)N[C@@H]1C(=O)N2C[C@H](Oc3nccc4cc(OC(C)C)ccc34)C[C@H]2C(=O)N[C@]2(C(=O)NS(=O)(=O)C3CC3)C[C@H]2/C=C\CC[C@H](C)C[C@H]1C)(C([2H])([2H])[2H])C([2H])([2H])[2H] [Compound 5154, 1,1,1,3,3,3-hexadeutero-2-(trideuteromethyl)propan-2-yl((2R,6S,7R,9S,13aS,14aR,16aS,Z)-14a-((cyclopropylsulfonyl)carbamoyl)-2-((6-isopropoxyisoquinolin-1-yl)oxy)-7,9-dimethyl-5,16-dioxo-1,2,3,5,6,7,8,9,10,11,13a,14,14a,15,16,16a-hexadecahydrocyclopropa[e]pyrrolo[1,2-a][1,4]diazacyclopentadecin-6-yl)carbamate]	4.82 to 103 nM	4.82 to 103 nM
[2H]C([2H])([2H])C(OC(=O)N[C@@H]1C(=O)N2C[C@H](Oc3nccc4cc(OC(C)C)ccc34)C[C@H]2C(=O)N[C@]2(C(=O)NS(=O)(=O)C3CC3)C[C@H]2/C=C\CC[C@@H](C)C[C@H]1C)(C([2H])([2H])[2H])C([2H])([2H])[2H] [Compound 5155, 1,1,1,3,3,3-hexadeutero-2-(trideuteromethyl)propan-2-yl((2R,6S,7R,9R,13aS,14aR,16aS,Z)-14a-((cyclopropylsulfonyl)carbamoyl)-2-((6-isopropoxyisoquinolin-1-yl)oxy)-7,9-dimethyl-5,16-dioxo-1,2,3,5,6,7,8,9,10,11,13a,14,14a,15,16,16a-hexadecahydrocyclopropa[e]pyrrolo[1,2-a][1,4]diazacyclopentadecin-6-yl)carbamate]	< 5.46 nM	< 5.46 nM
CC(C)Oc1ccc2c(O[C@@H]3C[C@H]4C(=O)N[C@]5(C(=O)NS(=O)(=O)C6(C)CC6)C[C@H]5/C=C\CC[C@H](C)C[C@@H](C)[C@H](NC(=O)OC(C)(C)C)C(=O)N4C3)nccc2c1 [Compound 5156, tert-butyl ((2R,6S,7R,9S,13aS,14aR,16aS,Z)-2-((6-isopropoxyisoquinolin-1-yl)oxy)-7,9-dimethyl-14a-(((1-methylcyclopropyl)sulfonyl)carbamoyl)-5,16-dioxo-1,2,3,5,6,7,8,9,10,11,13a,14,14a,15,16,16a-hexadecahydrocyclopropa[e]pyrrolo[1,2-a][1,4]diazacyclopentadecin-6-yl)carbamate]	4.82 to 103 nM	4.82 to 103 nM
CC(C)Oc1ccc2c(O[C@@H]3C[C@H]4C(=O)N[C@]5(C(=O)NS(=O)(=O)C6(C)CC6)C[C@H]5/C=C\CC[C@@H](C)C[C@@H](C)[C@H](NC(=O)OC(C)(C)C)C(=O)N4C3)nccc2c1 [Compound 5157, tert-butyl ((2R,6S,7R,9R,13aS,14aR,16aS,Z)-2-((6-isopropoxyisoquinolin-1-yl)oxy)-7,9-dimethyl-14a-(((1-methylcyclopropyl)sulfonyl)carbamoyl)-5,16-dioxo-1,2,3,5,6,7,8,9,10,11,13a,14,14a,15,16,16a-hexadecahydrocyclopropa[e]pyrrolo[1,2-a][1,4]diazacyclopentadecin-6-yl)carbamate]	< 5.46 nM	< 5.46 nM
CC(C)Oc1ccc2c(O[C@@H]3C[C@H]4C(=O)N[C@]5(C(=O)NS(=O)(=O)C6(C)CC6)C[C@H]5/C=C\CC[C@H](C)C[C@@H](C)[C@H](NC(=O)OC(C)(C)C(F)(F)F)C(=O)N4C3)nccc2c1 [Compound 5158, 1,1,1-trifluoro-2-methylpropan-2-yl((2R,6S,7R,9S,13aS,14aR,16aS,Z)-2-((6-isopropoxyisoquinolin-1-yl)oxy)-7,9-dimethyl-14a-(((1-methylcyclopropyl)sulfonyl)carbamoyl)-5,16-dioxo-1,2,3,5,6,7,8,9,10,11,13a,14,14a,15,16,16a-hexadecahydrocyclopropa[e]pyrrolo[1,2-a][1,4]diazacyclopentadecin-6-yl)carbamate]	< 5.46 nM	4.82 to 103 nM
CC(C)Oc1ccc2c(O[C@@H]3C[C@H]4C(=O)N[C@]5(C(=O)NS(=O)(=O)C6(C)CC6)C[C@H]5/C=C\CC[C@@H](C)C[C@@H](C)[C@H](NC(=O)OC(C)(C)C(F)(F)F)C(=O)N4C3)nccc2c1 [Compound 5159, 1,1,1-trifluoro-2-methylpropan-2-yl((2R,6S,7R,9R,13aS,14aR,16aS,Z)-2-((6-isopropoxyisoquinolin-1-yl)oxy)-7,9-dimethyl-14a-(((1-methylcyclopropyl)sulfonyl)carbamoyl)-5,16-dioxo-1,2,3,5,6,7,8,9,10,11,13a,14,14a,15,16,16a-hexadecahydrocyclopropa[e]pyrrolo[1,2-a][1,4]diazacyclopentadecin-6-yl)carbamate]	< 5.46 nM	< 5.46 nM
CC(C)Oc1ccc2c(O[C@@H]3C[C@H]4C(=O)N[C@]5(C(=O)NS(=O)(=O)C6(C)CC6)C[C@H]5/C=C\CC[C@H](C)C[C@@H](C)[C@H](NC(=O)O[C@H](C)C(F)(F)F)C(=O)N4C3)nccc2c1 [Compound 5160, (R)-1,1,1-trifluoropropan-2-yl ((2R,6S,7R,9S,13aS,14aR,16aS,Z)-2-((6-isopropoxyisoquinolin-1-yl)oxy)-7,9-dimethyl-14a-(((1-methylcyclopropyl)sulfonyl)carbamoyl)-5,16-dioxo-1,2,3,5,6,7,8,9,10,11,13a,14,14a,15,16,16a-hexadecahydrocyclopropa[e]pyrrolo[1,2-a][1,4]diazacyclopentadecin-6-yl)carbamate]	< 5.46 nM	4.82 to 103 nM
CC(C)Oc1ccc2c(O[C@@H]3C[C@H]4C(=O)N[C@]5(C(=O)NS(=O)(=O)C6(C)CC6)C[C@H]5/C=C\CC[C@@H](C)C[C@@H](C)[C@H](NC(=O)O[C@H](C)C(F)(F)F)C(=O)N4C3)nccc2c1 [Compound 5161, (R)-1,1,1-trifluoropropan-2-yl ((2R,6S,7R,9R,13aS,14aR,16aS,Z)-2-((6-isopropoxyisoquinolin-1-yl)oxy)-7,9-dimethyl-14a-(((1-methylcyclopropyl)sulfonyl)carbamoyl)-5,16-dioxo-1,2,3,5,6,7,8,9,10,11,13a,14,14a,15,16,16a-hexadecahydrocyclopropa[e]pyrrolo[1,2-a][1,4]diazacyclopentadecin-6-yl)carbamate]	< 5.46 nM	< 5.46 nM
CC(C)Oc1ccc2c(O[C@@H]3C[C@H]4C(=O)N[C@]5(C(=O)NS(=O)(=O)C6(C)CC6)C[C@H]5/C=C\CC[C@H](C)C[C@@H](C)[C@H](NC(=O)O[C@@H]5C[C@@H]6C[C@@H]6C5)C(=O)N4C3)nccc2c1 [Compound 5162, (1R,3r,5S)-bicyclo[3.1.0]hexan-3-yl((2R,6S,7R,9S,13aS,14aR,16aS,Z)-2-((6-isopropoxyisoquinolin-1-yl)oxy)-7,9-dimethyl-14a-(((1-methylcyclopropyl)sulfonyl)carbamoyl)-5,16-dioxo-1,2,3,5,6,7,8,9,10,11,13a,14,14a,15,16,16a-hexadecahydrocyclopropa[e]pyrrolo[1,2-a][1,4]diazacyclopentadecin-6-yl)carbamate]	< 5.46 nM	4.82 to 103 nM
CC(C)Oc1ccc2c(O[C@@H]3C[C@H]4C(=O)N[C@]5(C(=O)NS(=O)(=O)C6(C)CC6)C[C@H]5/C=C\CC[C@@H](C)C[C@@H](C)[C@H](NC(=O)O[C@@H]5C[C@@H]6C[C@@H]6C5)C(=O)N4C3)nccc2c1 [Compound 5163, (1R,3r,5S)-bicyclo[3.1.0]hexan-3-yl((2R,6S,7R,9R,13aS,14aR,16aS,Z)-2-((6-isopropoxyisoquinolin-1-yl)oxy)-7,9-dimethyl-14a-(((1-methylcyclopropyl)sulfonyl)carbamoyl)-5,16-dioxo-1,2,3,5,6,7,8,9,10,11,13a,14,14a,15,16,16a-hexadecahydrocyclopropa[e]pyrrolo[1,2-a][1,4]diazacyclopentadecin-6-yl)carbamate]	< 5.46 nM	< 5.46 nM
[2H]C([2H])([2H])C(C)(OC(=O)N[C@@H]1C(=O)N2C[C@H](Oc3nccc4cc(OC(C)C)ccc34)C[C@H]2C(=O)N[C@]2(C(=O)NS(=O)(=O)C3(C)CC3)C[C@H]2/C=C\CC[C@H](C)C[C@H]1C)C([2H])([2H])[2H] [Compound 5164]	4.82 to 103 nM	4.82 to 103 nM
[2H]C([2H])([2H])C(C)(OC(=O)N[C@@H]1C(=O)N2C[C@H](Oc3nccc4cc(OC(C)C)ccc34)C[C@H]2C(=O)N[C@]2(C(=O)NS(=O)(=O)C3(C)CC3)C[C@H]2/C=C\CC[C@@H](C)C[C@H]1C)C([2H])([2H])[2H] [Compound 5165]	< 5.46 nM	< 5.46 nM
